The structures appear in SMILES notation. Bridge positions count the residues as written; N and C are the ends. Peptide text beside a SMILES is read from it.

The target in one test is T1, IL-23 (Homo sapiens, UniProt P29460+Q9NPF7).
T1 construct: made in house
T1 sequence (Q9NPF7 20-189): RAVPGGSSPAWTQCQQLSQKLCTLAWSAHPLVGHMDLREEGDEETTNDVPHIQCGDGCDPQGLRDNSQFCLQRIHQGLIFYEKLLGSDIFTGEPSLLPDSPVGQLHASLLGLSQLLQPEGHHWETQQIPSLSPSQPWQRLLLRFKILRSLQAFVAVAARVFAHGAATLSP
T1 sequence (P29460 23-328): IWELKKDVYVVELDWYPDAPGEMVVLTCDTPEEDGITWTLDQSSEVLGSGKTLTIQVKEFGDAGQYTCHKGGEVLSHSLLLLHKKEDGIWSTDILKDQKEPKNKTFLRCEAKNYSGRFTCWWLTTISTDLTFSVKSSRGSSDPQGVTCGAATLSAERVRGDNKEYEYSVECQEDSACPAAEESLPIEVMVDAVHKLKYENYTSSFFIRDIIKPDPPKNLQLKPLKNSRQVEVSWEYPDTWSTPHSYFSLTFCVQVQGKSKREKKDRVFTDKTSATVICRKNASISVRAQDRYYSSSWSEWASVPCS
Put plainly: SPR direct binding to captured IL-23-AVI (Biacore T200). The settings on record: IL-23-AVI captured on streptavidin chip, 25°C, 50 μl/min, 10 mM HEPES pH 7.5, 150 mM NaCl, 0.005% P20, 3% DMSO, 1:1 binding model, multi-cycle (single cycle kinetics for 23–652 and IL-23R), n = 1, 23–447 an estimate, read-out: ka. As to the method: SPR (Biacore T200, GE Healthcare) was used to determine binding constants of the peptides against IL-23 and their competitiveness to IL-23R. All SPR experiments were performed at 25°C with flow rate of 50 μl/min. Assay buffer used in direct binding experiment was 10 mM HEPES pH 7.5, 150 mM NaCl, 0.005% P20, and 3% DMSO. Assay buffer used in competition experiment was 10 mM HEPES pH 7.5, 150 mM NaCl, 0.005% P20, and 1% BSA. All peptides were reconstituted first in DMSO as 10 mM stocks and then diluted into assay buffer. The proteins used in direct binding and competition SPR are described in S1 Table in S1 File. For direct binding of peptides against IL-23, 2000–9000 RU of IL-23-AVI was captured to streptavidin sensor chips (GE Healthcare, Series S Sensor Chip SA, BR-1005-31). Dilution series with 3-fold increment were prepared for each peptide. Initially, all peptides were tested up to 30 μM. Concentration range for some were then lowered accordingly based on affinity or nuisance behavior at high concentrations. SPR “multi-cycle” type was used for peptides 23–644, 23–437, 23–441, 23–446, and 23–447. Each cycle consisted of 30s of analyte injection and then 60s of buffer flow to monitor dissociation. “Single cycle kinetics” (SCK) type was used for 23–652 due to their long dissociation half-lives. Each SCK cycle consisted of five 60s injections of sample in increasing concentration with a final 600s of dissociation. To study IL-23 and IL-23R interaction, 200–1000 RU of IL-23-AVI and IL-23R-Fc-AVI were captured to streptavidin sensor chip. Dilution series with 3-fold increment of IL-23R-FLAG-HIS and IL-23-HIS were run in SCK cycle type as described above except the final dissociation time were 60-300s. Sensorgrams from the entire titration series for each sample were fitted globally to extract binding kinetics and affinity using Biacore T200 Evaluation Software 2.0 (GE Healthcare) according to a 1:1 binding model. To identify IL-23 binders that can block receptor binding, a competition SPR was established. In each SPR cycle, fresh IL-23R was capture (<1000 RU) by injecting 10 μg/ml of IL-23R-Fc-AVI to a Protein-A flow cell at 10 μl/min flow rate for 30s. Analyte consisted of a mixture of 20 nM of IL-23 protein and a single concentration of peptide was then injected for 30s at 50 μl/min to observe IL-23 binding. Finally, the Protein-A surface was regenerated by 10 mM Glycine pH 1.5 for 30s at 30 μl/min. IL-23 at 20 nM without peptide, “IL-23 only”, was used as control to quantify IL-23 binding without blockage; while “cold” IL-23R was used as a positive control for blockage.

A further test has as its target T2, IL-23:IL-23R (Homo sapiens, UniProt P29460+Q9NPF7).
T2 construct: made in house
T2 sequence (Q9NPF7 20-189): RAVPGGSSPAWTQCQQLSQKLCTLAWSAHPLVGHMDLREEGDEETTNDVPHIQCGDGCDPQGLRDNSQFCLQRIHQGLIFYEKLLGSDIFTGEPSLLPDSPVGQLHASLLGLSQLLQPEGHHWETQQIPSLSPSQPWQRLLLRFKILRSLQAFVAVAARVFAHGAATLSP
T2 sequence (P29460 23-328 partner): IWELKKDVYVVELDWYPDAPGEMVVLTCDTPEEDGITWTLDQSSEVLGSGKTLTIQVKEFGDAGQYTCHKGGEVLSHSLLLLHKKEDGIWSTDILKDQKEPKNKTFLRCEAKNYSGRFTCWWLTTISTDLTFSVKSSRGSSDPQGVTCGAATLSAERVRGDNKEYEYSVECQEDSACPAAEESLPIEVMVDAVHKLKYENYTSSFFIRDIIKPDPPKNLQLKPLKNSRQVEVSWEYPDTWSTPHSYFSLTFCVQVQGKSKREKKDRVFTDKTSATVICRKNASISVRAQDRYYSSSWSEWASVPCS
Kind of test: IL-23:IL-23R protein-protein interaction assay, AlphaLISA. The settings on record: disruption of the complex formed by IL-23 and IL-23R. It is filed as biochemical. The procedure: For AlphaLISA assay, peptides at concentration of 10 mM were dissolved in DMSO and serial 3-fold dilutions were carried out using acoustic technology, dispensing peptides directly into the assay plate (ProxiPlate-384 Plus). The rest of the reagents were dissolved in assay buffer containing 25 mM HEPES pH 7.4, 150 mM NaCl, 0.02% Tween 20 and 0.1% BSA. IL-23-AVI was pre-incubated with peptide at the indicated concentrations for 30 min at room temperature. Then, FLAG-tagged IL-23R was added to the assay mix and incubated at room temperature for 1 hour. This was followed by addition of Streptavidin-coated donor beads and acceptor beads conjugated to anti-FLAG antibody. Final assay concentration of IL-23-AVI and FLAG-IL-23R were 1.5 nM and 3 nM, respectively. The assay plate was incubated for one additional hour at RT and read in an Envision plate reader. For TR-FRET assay, tested compounds were serially diluted in DMSO using an Echo acoustic and dispensed directly into the final assay plate. Final concentration of DMSO in the assay was 1%. Assays were performed by preincubation of the diluted compounds with IL-23R-FLAG for one hour at room temperature in assay buffer containing 25 mM HEPES, 150 mM NaCl, 0.02% Tween 20, 0.1% BSA; pH 7.4. Next, IL-23-AVI was added to the assay mix and incubated for 1 hour at room temperature. Finally, the detection reagents, Europium-labeled streptavidin and Anti-FLAG IgG conjugated to SureLight–Allophycocyanin were added and incubated overnight at room temperature. Then, assay microplates were read and values were collected as the ratio between fluorescence emission at 665 nm and 615 nm (665/615). The final values were expressed as a percentage of the DMSO treated controls. IC50 values were calculated by fitting the normalized data to a four parameter logistic equation.
(In general: Bead proximity is the source of the signal in Alpha formats.)

Consider `CC[C@H](C)[C@H](NC(=O)[C@H](CCC(=O)O)NC(=O)[C@H](CCCCN)NC(=O)[C@@H](NC(=O)[C@@H](N)Cc1ccccc1)[C@@H](C)O)C(=O)N[C@@H](CC(=O)O)C(=O)N[C@@H](CO)C(=O)N[C@@H](Cc1c[nH]c2ccccc12)C(=O)N[C@@H](Cc1c[nH]c2ccccc12)C(=O)N[C@@H](CC(C)C)C(=O)N[C@@H](CO)C(=O)N[C@@H](CC(C)C)C(=O)N[C@@H](CCSC)C(=O)N[C@@H](CO)C(=O)N[C@@H](CO)C(=O)O` [23–437] (H-FTKEIDSWWLSLMSS-OH), for which the kon at IL-23 is 178000 M⁻¹ s⁻¹. Also, the “AlphaLISA potency” value at IL-23:IL-23R is given as “single digit micromolar”.
For `CC(C)C[C@@H]1NC(=O)[C@H](Cc2ccc(O)cc2)NC(=O)[C@H](Cc2ccc(O)cc2)NC(=O)[C@H](CC(C)C)NC(=O)[C@@H](NC(=O)[C@H](CCC(=O)O)NC(=O)[C@@H](N)CC(C)C)CSSC[C@@H](C(=O)N[C@@H](CC(=O)O)C(=O)N[C@@H](CC(N)=O)C(=O)O)NC(=O)[C@H](C(C)C)NC(=O)[C@H](CCCCN)NC(=O)[C@H](Cc2c[nH]c3ccccc23)NC(=O)[C@H](CCCNC(=N)N)NC1=O` [23–447] (H-LECLYYLRWKVCDN-OH; disulfide 3-12) the same measures were 48300 M⁻¹ s⁻¹ and “single digit micromolar”.
In the same order, the values of `CC[C@H](C)[C@H](NC(=O)[C@H](CCCCN)NC(=O)[C@@H](N)CCC(N)=O)C(=O)N[C@H](C(=O)N[C@@H](CCC(N)=O)C(=O)N[C@H]1CSSC[C@@H](C(=O)N[C@@H](CC(C)C)C(=O)N[C@@H](CC(C)C)C(=O)N[C@@H](CC(N)=O)C(=O)N[C@@H](CC(=O)O)C(=O)N[C@H](C(=O)O)C(C)C)NC(=O)[C@@H]2CCCN2C(=O)[C@H](Cc2ccc(O)cc2)NC(=O)[C@H]([C@@H](C)O)NC(=O)[C@H](Cc2c[nH]c3ccccc23)NC(=O)[C@H]([C@@H](C)CC)NC(=O)[C@H]([C@@H](C)CC)NC(=O)[C@H](Cc2ccc(O)cc2)NC(=O)[C@H](C(C)C)NC1=O)[C@@H](C)O` [23–441] (H-QKITQCVYIIWTYPCLLNDV-OH; disulfide 6-15) are 190000 M⁻¹ s⁻¹ and “single digit micromolar”.

These data come from PMC7263589, “Integration of phage and yeast display platforms: A reliable and cost effective approach for binning of peptides as displayed on-phage” (PLoS ONE, 2020).
